Assay results as given in patent publication US8716242B2, “β-hairpin peptidomimetics” (priority 2009, dated 2014).
Numbered stars: 1 amine (or outer) side, 2 acyl side, 3 side chain; on linkers, the order of the positions; unused ones are H or OH. Bridge positions count the residues as written; N and C are the ends. Square brackets hold non-standard residues; d marks the D form. Side chains are listed from the residue outwards. Peptide text beside a SMILES is read from it. * marks the point of attachment. γGlu = O=C(O)[C@H](CCC(=O)[*:2])N[*:1]; Palmitoyl = CCCCCCCCCCCCCCCC(=O)*; Myristoyl = CCCCCCCCCCCCCC(=O)*; Lauroyl = CCCCCCCCCCCC(=O)*; Dab = NCC[C@H](N)C(=O)O

Columns and labels:
[1] = Plasma stability in human plasma; format: in vitro ADME; conditions: human plasma, 37° C.; for remaining at 24 h, 10 μM: 1440 min, read-out: human pl. cpd left at 1440 min
Method in brief: (§1)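 Peptides (1 mM DMSO/H2O stock) were spiked into human or mouse plasma in triplicate and incubated at 37 °C, sampling from 0 to 1440 min. Samples were quenched in formic acid/acetonitrile and analysed by LC/MS MRM. Remaining percent of t=0 was calculated and T1/2 derived by trend fitting.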

[2] = Cytotoxicity, MTT reduction assay, COS-7 cells; format: cell-based; conditions: African green monkey, COS-7 cells (CRL-1651), 12.5-50 μM
Method in brief: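 HELA (4000/well) and COS-7 (3400/well) cells were grown 24 h, then exposed 48 h at 37° C to peptides at 12.5, 25 and 50 μM in triplicate. MTT reduction read at 595 nm; growth % relative to time-zero, and GI50 interpolated by trend line.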

[3] = test system: human red blood cells (hRBC); experiment: Hemolysis of human red blood cells; format: cell-based; conditions: 20% hRBC, 1 h, 37° C.
Method in brief: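 Washed fresh human erythrocytes (20% v/v, ~0.9×10^9 cells/mL final) incubated with compound at 100 μM for 1 h at 37 °C with shaking. Supernatant OD540 read; % hemolysis expressed relative to 2.5% Triton X-100 lysis (100%), with PBS/0.001% acetic acid as 0%.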

[4] = Plasma stability in mouse plasma; format: in vitro ADME; conditions: mouse plasma, 37° C.; for remaining at 24 h, 10 μM: 1440 min, read-out: mouse pl. cpd left at 1440 min
Method in brief: as §1

Row | Compound | remaining at 24 h, 10 μM [1] [%] | human pl. T1/2 ([1]; up to 1440 min) [h] | GI50 at 48 h [2] [µM] | Hemolysis at 100 μM [3] [%] | remaining at 24 h, 10 μM [4] [%] | mouse pl. T1/2 ([4]; up to 1440 min) [h] | half-life at 10 μM ([4]; up to 1440 min, read-out: mouse pl. T1/2) [h] | half-life at 10 μM ([1]; up to 1440 min, read-out: human pl. T1/2) [h]
1 | CCCCCCCCCCCCCCCC(=O)N[C@@H](CCC(=O)NCCCC[C@@H]1NC(=O)[C@H](Cc2ccc(O)cc2)NC(=O)[C@@H]2CSSC[C@H](NC(=O)[C@H](Cc3ccc(O)cc3)NC(=O)[C@H](Cc3c[nH]cn3)NC(=O)[C@H](Cc3ccc(O)cc3)NC(=O)[C@@H]3CCCN3C(=O)[C@H]3CCCN3C(=O)[C@H](CCCCN)NC1=O)C(=O)N[C@@H](CO)C(=O)N[C@@H](C)C(=O)N1CCC[C@@H]1C(=O)N[C@@H](CCN)C(=O)N[C@@H](CCCNC(=N)N)C(=O)N[C@@H](Cc1ccc(O)cc1)C(=O)N2)C(=O)O [Ex. 29] (cyclo(YHYCSA[dP][Dab]RYCYK([γGlu-Palmitoyl])K[dP]P); disulfide 4-11) | 74 | 24 | > 50 | 5.4 | 53 | 24 |  | 
2 | CCCCCCCCCCCC(=O)N[C@@H](CCC(=O)NCCCC[C@@H]1NC(=O)[C@H](Cc2ccc(O)cc2)NC(=O)[C@@H]2CSSC[C@H](NC(=O)[C@H](Cc3ccc(O)cc3)NC(=O)[C@H](Cc3c[nH]cn3)NC(=O)[C@H](Cc3ccc(O)cc3)NC(=O)[C@@H]3CCCN3C(=O)[C@H]3CCCN3C(=O)[C@H](CCCCN)NC1=O)C(=O)N[C@@H](CO)C(=O)N[C@@H](C)C(=O)N1CCC[C@@H]1C(=O)N[C@@H](CCN)C(=O)N[C@@H](CCCNC(=N)N)C(=O)N[C@@H](Cc1ccc(O)cc1)C(=O)N2)C(=O)O [Ex. 25] (cyclo(YHYCSA[dP][Dab]RYCYK([γGlu-Lauroyl])K[dP]P); disulfide 4-11) | 78 | 24 | > 50 | 1.0 | 74 | 24 |  | 
3 | CCCCCCCCCCCCCCCC(=O)NCCCC[C@@H]1NC(=O)[C@H](Cc2ccc(O)cc2)NC(=O)[C@@H]2CSSC[C@H](NC(=O)[C@H](Cc3ccc(O)cc3)NC(=O)[C@H](Cc3c[nH]cn3)NC(=O)[C@H](Cc3ccc(O)cc3)NC(=O)[C@@H]3CCCN3C(=O)[C@H]3CCCN3C(=O)[C@H](CCCCN)NC1=O)C(=O)N[C@@H](CO)C(=O)N[C@@H](C)C(=O)N1CCC[C@@H]1C(=O)N[C@@H](CCN)C(=O)N[C@@H](CCCNC(=N)N)C(=O)N[C@@H](Cc1ccc(O)cc1)C(=O)N2 [Ex. 20] (cyclo(YHYCSA[dP][Dab]RYCYK(Palmitoyl)K[dP]P); disulfide 4-11) | 54 | 24 | > 50 | 9.1 | 83 | 24 |  | 
4 | CCCCCCCCCCCC(=O)NCCCC[C@@H]1NC(=O)[C@H](Cc2ccc(O)cc2)NC(=O)[C@@H]2CSSC[C@H](NC(=O)[C@H](C)NC(=O)[C@H](Cc3c[nH]cn3)NC(=O)[C@H](Cc3ccc(O)cc3)NC(=O)[C@@H]3CCCN3C(=O)[C@H]3CCCN3C(=O)[C@H](CCCCN)NC1=O)C(=O)N[C@@H](CCCNC(=N)N)C(=O)N[C@@H](C)C(=O)N1CCC[C@@H]1C(=O)N[C@@H](CCN)C(=O)N[C@@H](CCCNC(=N)N)C(=O)N[C@@H](Cc1ccc(O)cc1)C(=O)N2 [Ex. 17] (cyclo(YHACRA[dP][Dab]RYCYK(Lauroyl)K[dP]P); disulfide 4-11) | 65 | 24 | > 50 | 4.3 | 59 |  | 19.5 | 
5 | CCCCCCCCCCCC(=O)N[C@@H](CCC(=O)NCCCC[C@@H]1NC(=O)[C@H](Cc2ccc(O)cc2)NC(=O)[C@@H]2CSSC[C@H](NC(=O)[C@H](C)NC(=O)[C@H](Cc3c[nH]cn3)NC(=O)[C@H](Cc3ccc(O)cc3)NC(=O)[C@@H]3CCCN3C(=O)[C@H]3CCCN3C(=O)[C@H](CCCCN)NC1=O)C(=O)N[C@@H](CCCNC(=N)N)C(=O)N[C@@H](C)C(=O)N1CCC[C@@H]1C(=O)N[C@@H](CCN)C(=O)N[C@@H](CCCNC(=N)N)C(=O)N[C@@H](Cc1ccc(O)cc1)C(=O)N2)C(=O)O [Ex. 26] (cyclo(YHACRA[dP][Dab]RYCYK([γGlu-Lauroyl])K[dP]P); disulfide 4-11) | 82 | 24 | > 50 | 1.2 | 65 | 24 |  | 
6 | CCCCCCCCCCCCCC(=O)N[C@@H](CCC(=O)NCCCC[C@@H]1NC(=O)[C@H](Cc2ccc(O)cc2)NC(=O)[C@@H]2CSSC[C@H](NC(=O)[C@H](Cc3ccc(O)cc3)NC(=O)[C@H](Cc3c[nH]cn3)NC(=O)[C@H](Cc3ccc(O)cc3)NC(=O)[C@@H]3CCCN3C(=O)[C@H]3CCCN3C(=O)[C@H](CCCCN)NC1=O)C(=O)N[C@@H](CO)C(=O)N[C@@H](C)C(=O)N1CCC[C@@H]1C(=O)N[C@@H](CCN)C(=O)N[C@@H](CCCNC(=N)N)C(=O)N[C@@H](Cc1ccc(O)cc1)C(=O)N2)C(=O)O [Ex. 28] (cyclo(YHYCSA[dP][Dab]RYCYK([γGlu-Myristoyl])K[dP]P); disulfide 4-11) | 80 |  | > 50 | 1.9 | 78 | 24 |  | 19.1
